Reference: patent US20030118631A1, “Anti-microbial soluble hemostatic gauze and method of making same” (priority 2001, published 2003)

What was measured:
Staphylococcus Aureus = assay: Agar dilution minimum inhibition concentration, aerobic growth base; type: cell-based; conditions: 37° C., 48 hours, mg antibiotic per liter
[1] = system: Staphylococcus Epidermidis; assay: as above; type: cell-based; conditions: 37° C., 48 hours, mg antibiotic per liter
Streptococcus Faccalis = assay: as above; type: cell-based; conditions: 37° C., 48 hours, mg antibiotic per liter
Streptococcus Gamma = assay: as above; type: cell-based; conditions: 37° C., 48 hours, mg antibiotic per liter
Streptococcus Psittac = assay: as above; type: cell-based; conditions: 37° C., 48 hours, mg antibiotic per liter
Pseudomonas Aeruginosa = assay: as above; type: cell-based; conditions: 37° C., 48 hours, mg antibiotic per liter
Bacillus Pyocyaneus = assay: as above; type: cell-based; conditions: 37° C., 48 hours, mg antibiotic per liter
Bacillus Coli Similis = assay: as above; type: cell-based; conditions: 37° C., 48 hours, mg antibiotic per liter
Bacillus Coli Immobilis = assay: as above; type: cell-based; conditions: 37° C., 48 hours, mg antibiotic per liter
[2] = system: Bacillus Canalis Capsulatus; assay: as above; type: cell-based; conditions: 37° C., 48 hours, mg antibiotic per liter
Klebsiella Pneumoniae = assay: as above; type: cell-based; conditions: 37° C., 48 hours, mg antibiotic per liter
Citrobacter Sp. = assay: as above; type: cell-based; conditions: 37° C., 48 hours, mg antibiotic per liter
Serratia = assay: as above; type: cell-based; conditions: 37° C., 48 hours, mg antibiotic per liter
Bacteroides Fragilis = assay: Agar dilution minimum inhibition concentration, anaerobic growth base; type: cell-based; conditions: anaerobic (nitrogen), 37° C., 48 hours, mg antibiotic per liter
Actinomyces = conditions: anaerobic (nitrogen), 37° C., 48 hours, mg antibiotic per liter
Method: (§1) To measure the effectiveness of the our antimicrobial gauze, we tested an antibiotic containing soluble hemostatic gauze material made in accordance with the present invention against the same antibiotic alone. We prepared a growth base for anaeroboic bacteria by mixing 20 grams glucose, 5 grams NaCl, 10 grams protein base, 5 grams yeast powder, 3 grams soluble starch, 20 grams agar and 0.4 grams amino acid. These materials were dissolved in 150 ml distilled water to form a liver paste solution. Then we added 1000 ml. water, adjusted the Ph to 7.2 and autoclaved the material. We prepared another growth base for aerobic bacteria by combining 10 grams beef paste, 10 grams protein base, 3 grams soluble starch, 5 grams NaCl and 20 grams agar in distilled water. Then we added 1000 ml. water, adjusted the Ph to 7.2 and autoclaved the material. We also prepared a series of solutions of the antibiotic chlindamycin in a Ph7.8 phospharese solution. The solutions were: 1280 mg antibiotic/L, 640 mg/L, 320 mg/l, 160 mg/L, 80 mg/L, 40 mg/L, 20 mg/l, 10 mg/L, 5 mg/L, 2.5 mg/L and 1.25 mg/L. We then added 2 ml of each of the diluted antibiotic solutions into a petri dish. Next we added 18 ml of warm (50° C.) autoclaved bacteria growth base prepared as described above for the type of bacteria (anaerobic or aerobic) to be tested to petri dishes to make growth plates. At that point we had growth plates with final antibiotic concentrations of 128, 64, 32, 16, 8, 4, 2, 1, 0.5, 0.25, and 0.125 mg antibiotic per liter.
(§2) We prepared a second series of growth bases with anti-microbial soluble hemostatic gauze to which the antibiotic chlindamycin had been linked. The gauze was prepared in accordance with the following steps.

Bacteroides Vulgatus = conditions: anaerobic (nitrogen), 37° C., 48 hours, mg antibiotic per liter
Method: as §1, §2

Peptostrepococcus = conditions: anaerobic (nitrogen), 37° C., 48 hours, mg antibiotic per liter
Method: as §1, §2

Bacteroides Ovatus = assay: Agar dilution minimum inhibition concentration, anaerobic growth base; type: cell-based; conditions: anaerobic (nitrogen), 37° C., 48 hours, mg antibiotic per liter
Fusobacterium Nuleatum = assay: as above; type: cell-based; conditions: anaerobic (nitrogen), 37° C., 48 hours, mg antibiotic per liter
Clostridium Perfringens = type: cell-based; conditions: anaerobic (nitrogen), 37° C., 48 hours, mg antibiotic per liter
Propionibacterium = assay: Agar dilution minimum inhibition concentration, anaerobic growth base; type: cell-based; conditions: anaerobic (nitrogen), 37° C., 48 hours, mg antibiotic per liter
[3] = system: Lactobacillus Acidophilus; assay: as above; type: cell-based; conditions: anaerobic (nitrogen), 37° C., 48 hours, mg antibiotic per liter
Lactobacillus Plantarum = assay: as above; type: cell-based; conditions: anaerobic (nitrogen), 37° C., 48 hours, mg antibiotic per liter
Bifidobacterium Longum = assay: as above; type: cell-based; conditions: anaerobic (nitrogen), 37° C., 48 hours, mg antibiotic per liter
Bifidobacterium Infantis = assay: as above; type: cell-based; conditions: anaerobic (nitrogen), 37° C., 48 hours, mg antibiotic per liter
[4] = system: Bifidobacterium Adolescents; assay: as above; type: cell-based; conditions: anaerobic (nitrogen), 37° C., 48 hours, mg antibiotic per liter

SMILES: CCC[C@@H]1C[C@@H](C(=O)N[C@@H]([C@H]2O[C@H](SC)[C@H](O)[C@@H](O)[C@H]2O)[C@H](C)Cl)N(C)C1 [Chlindamycin, chlindamycin]
- Minimum Inhibited Concentration (Staphylococcus Aureus): 1 mg/L
- Minimum Inhibited Concentration [1]: 0.5 mg/L
- Minimum Inhibited Concentration (Streptococcus Faccalis): 1 mg/L
- Minimum Inhibited Concentration (Streptococcus Gamma): 1 mg/L
- Minimum Inhibited Concentration (Streptococcus Psittac): 1 mg/L
- Minimum Inhibited Concentration (Pseudomonas Aeruginosa): 128 mg/L
- Minimum Inhibited Concentration (Bacillus Pyocyaneus): 128 mg/L
- Minimum Inhibited Concentration (Bacillus Coli Similis): 128 mg/L
- Minimum Inhibited Concentration (Bacillus Coli Immobilis): 128 mg/L
- Minimum Inhibited Concentration [2]: 64 mg/L
- Minimum Inhibited Concentration (Klebsiella Pneumoniae): 32 mg/L
- Minimum Inhibited Concentration (Citrobacter Sp.): 64 mg/L
- Minimum Inhibited Concentration (Serratia): 32 mg/L
- Minimum Inhibited Concentration (Bacteroides Fragilis): 0.5 mg/L
- Minimum Inhibited Concentration (Actinomyces): 0.125 mg/L
- Minimum Inhibited Concentration (Bacteroides Vulgatus): 0.125 mg/L
- Minimum Inhibited Concentration (Peptostrepococcus): 0.125 mg/L
- Minimum Inhibited Concentration (Bacteroides Ovatus): 2 mg/L
- Minimum Inhibited Concentration (Fusobacterium Nuleatum): 4 mg/L
- Minimum Inhibited Concentration (Clostridium Perfringens): 0.125 mg/L
- Minimum Inhibited Concentration (Propionibacterium): 0.25 mg/L
- Minimum Inhibited Concentration [3]: 32 mg/L
- Minimum Inhibited Concentration (Lactobacillus Plantarum): 64 mg/L
- Minimum Inhibited Concentration (Bifidobacterium Longum): 64 mg/L
- Minimum Inhibited Concentration (Bifidobacterium Infantis): 64 mg/L
- Minimum Inhibited Concentration [4]: 16 mg/L
